Test system: patients with type 2 diabetes at high vascular risk
Experiment: Cardiovascular and Renal Outcomes Trial: linagliptin 5 mg once daily vs placebo on top of standard of care
Format: in vivo
Settings: for Hazard ratio for hospitalised heart failure: vs placebo
Procedure: The effect of linagliptin on cardiovascular risk in adult patients with type 2 diabetes mellitus and with increased CV risk evidenced by a history of established macrovascular or renal disease (e.g. as defined herein) was evaluated in a multi-center, multi-national, randomized, double-blind parallel group trial. The trial compared the risk of experiencing a major adverse cardiovascular event (MACE) between linagliptin and placebo when these were added to and used concomitantly with standard of care treatments for diabetes (HbA1c), cardiovascular risk factors and renal disease.
The primary endpoint in this trial was the time to first occurrence of three point (3P) MACE. A major adverse cardiac event was defined as a cardiovascular death or a nonfatal myocardial infarction (MI) or a nonfatal stroke. The statistical analysis plan tested for non-inferiority for the occurrence of (3P) MACE. […] The secondary endpoint was a renal composite, defined as renal death or sustained end stage renal disease or sustained decrease of 40% or more in eGFR.
Type 2 diabetes patient with insufficient glycemic control (naïve or pre-treated with any antidiabetic background medication, excluding treatment with GLP-1 receptor agonists, DPP-4inhibitors or SGLT-2 inhibitors if ≥consecutive 7 days, e.g. having HbA1c 6.5-10%), and high risk of cardiovascular events, e.g. defined by: • albuminuria (micro or macro) and previous macrovascular disease: e.g. defined according to Condition I as indicated below; • and/or • impaired renal function: e.g. as defined according to Condition II as indicated below;
Background and aims: People with type 2 diabetes (T2D) are at increased risk for hospitalization for heart failure (hHF), particularly in the setting of concomitant cardiovascular (CV) and/or kidney disease. […] Here we present analyses of HF outcomes with the DPP-4 inhibitor linagliptin (LINA) vs. placebo (PBO) from a Cardiovascular and Renal Outcomes Trial assessing cardiovascular safety and renal microvascular outcome in patients with type 2 diabetes at high vascular risk, a large CV outcomes trial that enrolled participants with T2D at high risk for hHF due to concomitant CV and/or chronic kidney disease. Materials and methods: People with T2D and concomitant CV and/or kidney disease were randomized to receive LINA 5 mg, or PBO once daily (1:1), on top of standard of care. All hHF, CV outcomes, and deaths were centrally adjudicated, with individual and composite HF-related outcomes analyses comparing LINA vs. placebo. Investigator-reported HF-related adverse events, whether or not confirmed by adjudication, were also analyzed. A Cox proportional hazards model adjusting for region and history of HF was used for analyses of first events. Recurrent hHF events were analyzed using a negative binomial model.
Methods: The present Cardiovascular and Renal Outcomes Trial randomized people with T2D and i) concomitant CV disease with UACR >30 mg/g or ii) prevalent CKD (i.e. GFR <45 ml/min/1.73m2 and/or UACR >200 mg/g) to receive the DPP-4 inhibitor linagliptin (5 mg) or placebo once daily in a double-blind fashion. The primary CV endpoint was 3P-MACE, with a key secondary kidney endpoint (adjudicated ESKD, renal death, or sustained ≥40% decrease in eGFR from baseline) and other renal outcomes (including albuminuria and eGFR slope) also assessed. Subgroups were assessed by baseline kidney function (eGFR ≥/<45 ml/min/1.73m2and eGFR ≥/<30, 45 or 60 ml/min/1.73m2).
Adults with type 2 diabetes, HbA1c 6.5-10.0% inclusive, and high CV risk were eligible for inclusion. […] Macrovascular disease eligibility criteria was based on documented and confirmed history of myocardial infarction, coronary artery disease, stroke, carotid artery disease, or peripheral artery disease. Participants with end-stage kidney disease (ESKD), defined as eGFR <15 or requiring maintenance dialysis, were excluded.

[1] = Metformin-dose: Not on metformin
[2] = Prevalent kidney disease (eGFR<60 mL/min/1.73 m^2 or macroalbuminuria UACR >300 mg/g) No
[3] = Prevalent kidney disease (eGFR<60 mL/min/1.73 m^2 or macroalbuminuria UACR >300 mg/g) Yes
[4] = Prevalent kidney disease (eGFR<60 or UACR >300 mg/g) No
[5] = Prevalent kidney disease (eGFR<60 or UACR >300 mg/g) Yes

CC#CCn1c(N2CCC[C@@H](N)C2)nc2c1c(=O)n(Cc1nc(C)c3ccccc3n1)c(=O)n2C [Linagliptin, 1-[(4-methyl-quinazolin-2-yl)methyl]-3-methyl-7-(2-butyn-1-yl)-8-(3-(R)-amino-piperidin-1-yl)-xanthine]
Hazard ratio for hospitalised heart failure (History of heart failure Yes): 0.88 | 3-point MACE: hazard ratio vs placebo (Insulin No): 0.88 | 3-point MACE: patients with event/patients analyzed (Insulin No): 139/1487 | Key secondary kidney outcome: hazard ratio vs placebo (Insulin No): 1.08 | Key secondary kidney outcome: patients with event/patients analyzed (Insulin No): 101/1487 | Patients with event/patients analysed, hospitalised heart failure (Insulin No): 40/1487 | Hazard ratio for hospitalised heart failure (Insulin No): 0.62 | 3-point MACE: hazard ratio vs placebo (Insulin Yes): 1.10 | 3-point MACE: patients with event/patients analyzed (Insulin Yes): 295/2007 | Key secondary kidney outcome: hazard ratio vs placebo (Insulin Yes): 1.01 | Key secondary kidney outcome: patients with event/patients analyzed (Insulin Yes): 226/2007 | Patients with event/patients analysed, hospitalised heart failure (Insulin Yes): 169/2007 | Hazard ratio for hospitalised heart failure (Insulin Yes): 1.00 | Patients with event/patients analysed, hospitalised heart failure (Ischemic heart disease No): 66/1465 | Hazard ratio for hospitalised heart failure (Ischemic heart disease No): 1.04 | Patients with event/patients analysed, hospitalised heart failure (Ischemic heart disease Yes): 143/2029 | Hazard ratio for hospitalised heart failure (Ischemic heart disease Yes): 0.85 | 3-point MACE: hazard ratio vs placebo (Lipid lowering drugs No): 0.90 | 3-point MACE: patients with event/patients analyzed (Lipid lowering drugs No): 95/871 | Key secondary kidney outcome: hazard ratio vs placebo (Lipid lowering drugs No): 1.13 | Key secondary kidney outcome: patients with event/patients analyzed (Lipid lowering drugs No): 101/871 | Patients with event/patients analysed, hospitalised heart failure (Lipid lowering drugs No): 34/871 | Hazard ratio for hospitalised heart failure (Lipid lowering drugs No): 1.01 | 3-point MACE: hazard ratio vs placebo (Lipid lowering drugs Yes): 1.06 | 3-point MACE: patients with event/patients analyzed (Lipid lowering drugs Yes): 339/2623 | Key secondary kidney outcome: hazard ratio vs placebo (Lipid lowering drugs Yes): 1.00 | Key secondary kidney outcome: patients with event/patients analyzed (Lipid lowering drugs Yes): 226/2623 | Patients with event/patients analysed, hospitalised heart failure (Lipid lowering drugs Yes): 175/2623 | Hazard ratio for hospitalised heart failure (Lipid lowering drugs Yes): 0.88 | Patients with event/patients analysed, hospitalised heart failure (Loop diuretics No): 80/2530 | Hazard ratio for hospitalised heart failure (Loop diuretics No): 0.97 | Patients with event/patients analysed, hospitalised heart failure (Loop diuretics Yes): 129/964 | Hazard ratio for hospitalised heart failure (Loop diuretics Yes): 0.90 | 3-point MACE: hazard ratio vs placebo (Metformin No): 1.02 | 3-point MACE: patients with event/patients analyzed (Metformin No): 242/1613 | Key secondary kidney outcome: hazard ratio vs placebo (Metformin No): 0.99 | Key secondary kidney outcome: patients with event/patients analyzed (Metformin No): 212/1613 | Patients with event/patients analysed, hospitalised heart failure (Metformin No): 138/1613 | Hazard ratio for hospitalised heart failure (Metformin No): 0.97 | 3-point MACE: hazard ratio vs placebo (Metformin Yes): 1.02 | 3-point MACE: patients with event/patients analyzed (Metformin Yes): 192/1881 | Key secondary kidney outcome: hazard ratio vs placebo (Metformin Yes): 1.11 | Key secondary kidney outcome: patients with event/patients analyzed (Metformin Yes): 115/1881 | Patients with event/patients analysed, hospitalised heart failure (Metformin Yes): 71/1881 | Hazard ratio for hospitalised heart failure (Metformin Yes): 0.79 | 3-point MACE: hazard ratio vs placebo (Metformin-dose >1500 mg): 1.02 | 3-point MACE: patients with event/patients analyzed (Metformin-dose >1500 mg): 111/1094 | Key secondary kidney outcome: hazard ratio vs placebo (Metformin-dose >1500 mg): 0.99 | Key secondary kidney outcome: patients with event/patients analyzed (Metformin-dose >1500 mg): 62/1094 | Patients with event/patients analysed, hospitalised heart failure (Metformin-dose >1500 mg): 49/1094 | Hazard ratio for hospitalised heart failure (Metformin-dose >1500 mg): 0.88 | 3-point MACE: hazard ratio vs placebo (Metformin-dose ≤1500 mg): 1.02 | 3-point MACE: patients with event/patients analyzed (Metformin-dose ≤1500 mg): 81/787 | Key secondary kidney outcome: hazard ratio vs placebo (Metformin-dose ≤1500 mg): 1.29 | Key secondary kidney outcome: patients with event/patients analyzed (Metformin-dose ≤1500 mg): 53/787 | Patients with event/patients analysed, hospitalised heart failure (Metformin-dose ≤1500 mg): 22/787 | Hazard ratio for hospitalised heart failure (Metformin-dose ≤1500 mg): 0.65 | 3-point MACE: hazard ratio vs placebo [1]: 1.02 | 3-point MACE: patients with event/patients analyzed [1]: 242/1613 | Key secondary kidney outcome: hazard ratio vs placebo [1]: 0.99 | Key secondary kidney outcome: patients with event/patients analyzed [1]: 212/1613 | Patients with event/patients analysed, hospitalised heart failure [1]: 138/1613 | Hazard ratio for hospitalised heart failure [1]: 0.97 | Patients with event/patients analysed, hospitalised heart failure [2]: 18/887 | Hazard ratio for hospitalised heart failure [2]: 0.69 | Patients with event/patients analysed, hospitalised heart failure [3]: 191/2606 | Hazard ratio for hospitalised heart failure [3]: 0.91 | 3-point MACE: hazard ratio vs placebo [4]: 0.88 | 3-point MACE: patients with event/patients analyzed [4]: 60/887 | Key secondary kidney outcome: hazard ratio vs placebo [4]: 1.36 | Key secondary kidney outcome: patients with event/patients analyzed [4]: 19/887 | 3-point MACE: hazard ratio vs placebo [5]: 1.04 | 3-point MACE: patients with event/patients analyzed [5]: 374/2606 | Key secondary kidney outcome: hazard ratio vs placebo [5]: 0.99 | Key secondary kidney outcome: patients with event/patients analyzed [5]: 308/2606 | 3-point MACE: hazard ratio vs placebo (Race Asian): 1.09 | 3-point MACE: patients with event/patients analyzed (Race Asian): 40/307 | Key secondary kidney outcome: hazard ratio vs placebo (Race Asian): 0.90 | Key secondary kidney outcome: patients with event/patients analyzed (Race Asian): 32/307 | Patients with event/patients analysed, hospitalised heart failure (Race Asian): 14/307 | 3-point MACE: hazard ratio vs placebo (Race Black/African-American): 1.30 | 3-point MACE: patients with event/patients analyzed (Race Black/African-American): 31/194 | Key secondary kidney outcome: hazard ratio vs placebo (Race Black/African-American): 1.31 | Key secondary kidney outcome: patients with event/patients analyzed (Race Black/African-American): 35/194 | Patients with event/patients analysed, hospitalised heart failure (Race Black/African-American): 15/194

From US20240398817A1, “CARDIO- AND RENOSAFE ANTIDIABETIC THERAPY” (priority 2018, published 2024)
